Entries after “also recorded” stand apart in the source; their conditions may differ. Read-outs that look alike come from different tables or passages of the source.
What was measured:
Format in all cases: binding
[1] = biological target: T1, human SSTR3 (Homo sapiens, UniProt P32745); assay: Displacement of 125I-[Leu8,D-Trp22,Tyr25]-somatostatin-28 from cloned SSTR3 (receptor autoradiography on membrane pellets); details: for relative potency at SSTR3 by comparison to SRIF-28: binding affinity relative to SRIF-28 (=1); for binding strength and selectivity for SSTR3, in words: qualitative statement
T1 construct: expressed in transfected cells; host or cells: CHO-K1 cells and CCL39 cells
Experimental: (§1) Generally, recombinant cells expressing the receptor are washed and homogenized to prepare a crude protein homogenate in a suitable buffer, as known in the art. In a typical assay, an amount of protein from the cell homogenate is placed into a small volume of an appropriate assay buffer at an appropriate pH. Candidate substances, such as potential SRIF agonists and antagonists, are added to the admixture in convenient concentrations, and the interaction between the candidate substance and the receptor polypeptide is monitored.
(§2) Receptor binding assays are performed on cloned SRIF receptors as generally set forth in Raynor et al. supra. Using such assays, one can generate KD values which are indicative of the concentration of a ligand necessary to occupy one-half (50%) of the binding sites on a selected amount of a receptor or the like, or alternatively, competitive assays can generate IC50 values which are indicative of the concentration of a competitive ligand necessary to displace a saturation concentration of a target ligand being measured from 50% of binding sites. The peptide des-AA^1,2,4,5,12,13-[D-Agl^8(Me,2-naphthoyl)]SRIF inhibits the binding to SSTR3 of an iodinated SRIF-28 ligand that has strong affinity for all five receptors.
(§3) In vitro Bioassay: The various somatostatin analogs are tested in vitro for their ability to bind to isolated cloned receptors expressed on CHO-K1 cells and CCL39 cells. CHO-K1 cells are grown in Ham's F-12 medium, and CCL39 cells are grown in Dulbecco's modified Eagle's medium/Ham's F-12(1:1) mix, supplemented with 10% fetal bovine serum, 100 U/ml penicillin and 100 μg/ml streptomycin, in humidified air containing 5% CO2 at 37° C.
(§4) Cells are washed twice with and scraped into ice-cold 0.05 M Tris-HCl (pH 7.4), collected by centrifugation, and homogenized using a rotor/stator slash system in the same buffer. After centrifugation at 120 g for 5 min. at 4° C., the supernatant is collected and centrifuged again at 48,000 g for 30 min. at 4° C. The resulting pellet is resuspended in ice-cold Tris buffer, transferred into a microfuge tube, and centrifuged at 20,000 g for 15 min. at 4° C. After withdrawal of the supernatant, the membrane pellet is stored at −80° C.
(§5) Receptor autoradiography is performed on 20 μm thick cryostat sections of the membrane pellets, mounted on microscope slides, and then stored at −20° C. For each of the tested compounds, complete displacement experiments are performed with the universal somatostatin ligand radioligand ^125I-[Leu^8,D-Trp^22,Tyr^25]-somatostatin-28 that binds with strong affinity to all five receptors. Increasing concentrations of the unlabeled peptide are used ranging from 0.1-1000 nM. Unlabeled somatostatin-28 is run in parallel using the same increasing concentrations, as a control. IC50 values are calculated after quantification of the data using a computer-assisted image processing system as known in this art.
(§6) The potencies of certain SRIF analogs to inhibit radioligand binding of ^125I-[Leu^8,D-Trp^22,[…]]SRIF-28 to the various cloned SRIF receptors are shown in the following table wherein the IC50 values are given in nanomolar concentration.

[2] = biological target: T2, human SSTR2 (Homo sapiens, UniProt P30874); assay: Displacement of 125I-[Leu8,D-Trp22,Tyr25]-somatostatin-28 from cloned SSTR2 (receptor autoradiography on membrane pellets)
T2 construct: expressed in transfected cells; host or cells: CHO-K1 cells and CCL39 cells
Experimental: as §1
as §2, with “sites.” for “sites. The peptide des-AA^1,2,4,5,12,13-[D-Agl^8(Me,2-naphthoyl)]SRIF inhibits the binding to SSTR3 of an iodinated SRIF-28 ligand that has strong affinity for all five receptors.”
as §3, §4
(§7) Receptor autoradiography is performed on 20 μm thick cryostat sections of the membrane pellets, mounted on microscope slides, and then stored at −20° C. […] […] Unlabeled somatostatin-28 is run in parallel using the same increasing concentrations, as a control. IC50 values are calculated after quantification of the data using a computer-assisted image processing system as known in this art.

[3] = biological target: T3, human SSTR5 (Homo sapiens, UniProt P35346); assay: Displacement of 125I-[Leu8,D-Trp22,Tyr25]-somatostatin-28 from cloned SSTR5 (receptor autoradiography on membrane pellets)
T3 construct: expressed in transfected cells; host or cells: CHO-K1 cells and CCL39 cells
Experimental: as §1, §2, §3, §4
as §5, with “Increasing concentrations of the unlabeled peptide are used ranging from 0.1-1000 nM.” left out
as §6

[4] = biological target: T4, human SSTR4 (Homo sapiens, UniProt P31391); assay: Displacement of 125I-[Leu8,D-Trp22,Tyr25]-somatostatin-28 from cloned SSTR4 (receptor autoradiography on membrane pellets)
T4 construct: expressed in transfected cells; host or cells: CHO-K1 cells and CCL39 cells
Experimental: as §1
as §2, with “sites.” for “sites. The peptide des-AA^1,2,4,5,12,13-[D-Agl^8(Me,2-naphthoyl)]SRIF inhibits the binding to SSTR3 of an iodinated SRIF-28 ligand that has strong affinity for all five receptors.”
as §3, §4, §7

[5] = biological target: T5, human SSTR1 (Homo sapiens, UniProt P30872); assay: Displacement of 125I-[Leu8,D-Trp22,Tyr25]-somatostatin-28 from cloned SSTR1 (receptor autoradiography on membrane pellets)
T5 construct: expressed in transfected cells; host or cells: CHO-K1 cells and CCL39 cells
Experimental: as §1
as §2, with “sites.” for “sites. The peptide des-AA^1,2,4,5,12,13-[D-Agl^8(Me,2-naphthoyl)]SRIF inhibits the binding to SSTR3 of an iodinated SRIF-28 ligand that has strong affinity for all five receptors.”
as §3, §4, §7

[6] = inhibition of 125I-[Leu8,D-Trp22,Tyr24]SRIF-28 binding, cloned receptor, read-out: IC50 (nM) mSSTR3
[7] = iodinated SRIF-28 ligand, cloned human receptor, read-out: IC50 at cloned human SSTR3
[8] = inhibition of 125I-[Leu8,D-Trp22,Tyr24]SRIF-28 binding, cloned receptor, read-out: IC50 (nM) mSSTR2
[9] = inhibition of 125I-[Leu8,D-Trp22,Tyr24]SRIF-28 binding, cloned receptor, read-out: IC50 (nM) mSSTR5
[10] = inhibition of 125I-[Leu8,D-Trp22,Tyr24]SRIF-28 binding, cloned receptor, read-out: IC50 (nM) mSSTR4
[11] = inhibition of 125I-[Leu8,D-Trp22,Tyr24]SRIF-28 binding, cloned receptor, read-out: IC50 (nM) mSSTR1

T5 sequence (P30872 whole entry): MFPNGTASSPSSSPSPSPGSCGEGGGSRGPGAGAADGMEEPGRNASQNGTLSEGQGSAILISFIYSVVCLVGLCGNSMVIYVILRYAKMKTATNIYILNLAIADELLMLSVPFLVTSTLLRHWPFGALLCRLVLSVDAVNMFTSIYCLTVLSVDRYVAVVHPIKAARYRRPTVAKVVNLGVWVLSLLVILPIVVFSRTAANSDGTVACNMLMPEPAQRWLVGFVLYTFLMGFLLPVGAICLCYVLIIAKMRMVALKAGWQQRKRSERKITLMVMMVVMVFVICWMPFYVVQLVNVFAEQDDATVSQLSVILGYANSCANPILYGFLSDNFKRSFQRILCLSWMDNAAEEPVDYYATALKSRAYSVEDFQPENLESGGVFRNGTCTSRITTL
T1 sequence (P32745 whole entry): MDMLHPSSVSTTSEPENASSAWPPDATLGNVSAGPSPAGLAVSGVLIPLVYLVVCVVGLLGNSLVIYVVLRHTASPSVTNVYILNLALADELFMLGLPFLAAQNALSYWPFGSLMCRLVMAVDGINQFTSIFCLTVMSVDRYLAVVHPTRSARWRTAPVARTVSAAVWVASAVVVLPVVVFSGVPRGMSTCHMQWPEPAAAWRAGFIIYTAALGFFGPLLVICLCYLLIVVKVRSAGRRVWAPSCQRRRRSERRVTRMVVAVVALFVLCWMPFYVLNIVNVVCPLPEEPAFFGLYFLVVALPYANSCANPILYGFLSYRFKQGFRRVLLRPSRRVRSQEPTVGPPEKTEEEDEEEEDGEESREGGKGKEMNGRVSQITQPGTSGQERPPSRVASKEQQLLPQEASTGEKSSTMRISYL
T4 sequence (P31391 whole entry): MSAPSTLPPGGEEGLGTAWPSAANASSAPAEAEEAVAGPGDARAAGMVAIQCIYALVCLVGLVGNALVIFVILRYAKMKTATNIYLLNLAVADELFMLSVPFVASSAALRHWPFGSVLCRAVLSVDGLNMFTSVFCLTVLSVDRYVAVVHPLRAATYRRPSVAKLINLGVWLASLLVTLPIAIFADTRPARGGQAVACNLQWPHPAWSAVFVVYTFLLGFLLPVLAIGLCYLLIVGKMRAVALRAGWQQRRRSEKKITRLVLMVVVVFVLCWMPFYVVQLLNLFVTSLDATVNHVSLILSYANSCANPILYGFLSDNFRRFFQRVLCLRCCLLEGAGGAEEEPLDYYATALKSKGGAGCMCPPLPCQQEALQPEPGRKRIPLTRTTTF
T3 sequence (P35346 whole entry): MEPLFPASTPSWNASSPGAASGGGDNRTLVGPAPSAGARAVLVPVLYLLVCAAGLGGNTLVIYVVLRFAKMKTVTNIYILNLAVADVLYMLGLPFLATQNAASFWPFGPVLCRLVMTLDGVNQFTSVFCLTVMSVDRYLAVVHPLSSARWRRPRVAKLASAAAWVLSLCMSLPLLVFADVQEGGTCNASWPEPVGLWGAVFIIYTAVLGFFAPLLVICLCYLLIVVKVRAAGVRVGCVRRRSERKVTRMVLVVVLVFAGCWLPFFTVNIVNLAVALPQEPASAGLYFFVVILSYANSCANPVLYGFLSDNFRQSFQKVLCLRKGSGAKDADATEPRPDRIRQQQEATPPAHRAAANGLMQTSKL
T2 sequence (P30874 whole entry): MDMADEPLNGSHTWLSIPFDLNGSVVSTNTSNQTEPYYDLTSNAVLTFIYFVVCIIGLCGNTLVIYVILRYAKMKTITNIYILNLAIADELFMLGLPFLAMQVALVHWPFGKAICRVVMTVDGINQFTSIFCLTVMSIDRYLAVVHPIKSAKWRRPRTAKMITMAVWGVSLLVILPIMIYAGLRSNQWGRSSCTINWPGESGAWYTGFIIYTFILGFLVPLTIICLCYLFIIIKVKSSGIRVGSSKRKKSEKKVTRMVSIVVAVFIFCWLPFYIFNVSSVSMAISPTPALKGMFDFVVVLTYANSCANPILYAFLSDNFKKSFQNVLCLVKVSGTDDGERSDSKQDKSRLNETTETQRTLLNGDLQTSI

| SMILES | relative potency at SSTR3 by comparison to SRIF-28 [1] | IC50 [1, 6] [nM] | IC50 [1, 7] [nM] | binding strength and selectivity for SSTR3, in words [1] | IC50 [2, 8] [nM] | IC50 [3, 9] [nM] | IC50 [4, 10] [nM] | IC50 [5, 11] [nM] | also measured |
| --- | --- | --- | --- | --- | --- | --- | --- | --- | --- |
| C[C@@H](O)[C@@H]1NC(=O)[C@H](CCCCN)NC(=O)[C@@H](N(C)C(=O)c2ccc3ccccc3c2)NC(=O)[C@H](Cc2ccc(O)cc2)NC(=O)[C@H](Cc2ccccc2)NC(=O)[C@@H](N)CSSC[C@@H](C(=O)O)NC(=O)[C@H](Cc2ccccc2)NC1=O [Peptide No. 2, (cyclo)H-Cys-Phe-Tyr-D-Agl(Me,2Np)-Lys-Thr-Phe-Cys-OH] | about 0.13 | 70 ± 18 | ~70 | selectively bound to SSTR3 | > 10000 | > 10000 | > 1000 | > 10000 | binding strength and selectivity for SSTR3, in words ([1]; listed as Peptide 2): bind strongly and selectively to SSTR3; effect on binding of the SRIF-28 radioligand to human SSTR2 ([2]; peptide at 100 nM): minimal effects; effect on binding of the SRIF-28 radioligand to human SSTR5 ([3]; peptide at 100 nM): minimal effects; effect on binding of the SRIF-28 radioligand to human SSTR4 ([4]; peptide at 100 nM): minimal effects; effect on binding of the SRIF-28 radioligand to human SSTR1 ([5]; peptide at 100 nM): minimal effects |
| C[C@@H](O)[C@@H]1NC(=O)[C@H](CCCCN)NC(=O)[C@@H](N(C)C(=O)c2ccc3ccccc3c2)NC(=O)[C@H](Cc2ccc(O)cc2)NC(=O)[C@H](Cc2ccccc2)NC(=O)[C@H](N)CSSC[C@@H](C(=O)O)NC(=O)[C@H](Cc2ccccc2)NC1=O [Peptide No. 2A, (cyclo 3-14)H-D-Cys-Phe-Tyr-D-Agl(Me,2Np)-Lys-Thr-Phe-Cys-OH] | about 0.24 | 39 ± 11 | ~39 | selectively binds to SSTR3 | > 10000 | > 10000 | > 10000 | > 10000 | binding strength and selectivity for SSTR3, in words ([1]; listed as Peptide 2A): bind strongly and selectively to SSTR3 |
| C[C@@H](O)[C@@H]1NC(=O)[C@H](CCCCN)NC(=O)[C@@H](N(C)C(=O)c2ccc3ccccc3c2)NC(=O)[C@H](Cc2ccccc2)NC(=O)[C@H](Cc2ccccc2)NC(=O)[C@@H](N)CSSC[C@@H](C(=O)O)NC(=O)[C@H](Cc2ccccc2)NC1=O [Peptide No. 2B, (cyclo 3-14)H-Cys-Phe-Phe-D-Agl(Me,2Np)-Lys-Thr-Phe-Cys-OH] | about 0.13 | 70 ± 17 | ~70 | selectively binds to SSTR3 | > 10000 | > 10000 | > 10000 | > 10000 | IC50 at cloned human SSTR3 ([1]; iodinated SRIF-28 ligand, cloned human receptor): about the same as No. 2; binding strength and selectivity for SSTR3, in words ([1]; listed as Peptide 2B): bind strongly and selectively to SSTR3; IC50 ([2]; iodinated SRIF-28 ligand, cloned human receptor, read-out: concentration below which no binding to human SSTR2): > 10000 nM; IC50 ([3]; iodinated SRIF-28 ligand, cloned human receptor, read-out: concentration below which no binding to human SSTR5): > 10000 nM; IC50 ([4]; iodinated SRIF-28 ligand, cloned human receptor, read-out: concentration below which no binding to human SSTR4): > 1000 nM; IC50 ([5]; iodinated SRIF-28 ligand, cloned human receptor, read-out: concentration below which no binding to human SSTR1): > 10000 nM |
| C[C@@H](O)[C@@H]1NC(=O)[C@H](CCCCN)NC(=O)[C@@H](N(C)C(=O)c2ccc3ccccc3c2)NC(=O)[C@H](Cc2ccc(Cl)cc2)NC(=O)[C@H](Cc2ccccc2)NC(=O)[C@@H](N)CSSC[C@@H](C(=O)O)NC(=O)[C@H](Cc2ccccc2)NC1=O [Peptide No. 2C, (cyclo 3-14)H-Cys-Phe-4ClPhe-D-Agl(Me,2Np)-Lys-Thr-Phe-Cys-OH] |  | 300 |  |  | > 1000 | > 10000 | > 10000 | > 1000 | binding strength and selectivity for SSTR3, in words ([1]; listed as Peptide 2C): bind strongly and selectively to SSTR3; also recorded: slightly less selective |
| C[C@@H](O)[C@@H]1NC(=O)[C@H](CCCCN)NC(=O)[C@@H](N(C)C(=O)c2ccc3ccccc3c2)NC(=O)[C@H](Cc2ccccc2)NC(=O)[C@H](Cc2ccccc2)NC(=O)[C@H](N)CSSC[C@@H](C(=O)O)NC(=O)[C@H](Cc2ccccc2)NC1=O [Peptide No. 2D, (cyclo 3-14)H-D-Cys-Phe-Phe-D-Agl(Me,2Np)-Lys-Thr-Phe-Cys-OH] | about 0.08 | 115 ± 36 |  |  | > 10000 | > 1000 | > 10000 | > 10000 | binding strength and selectivity for SSTR3, in words ([1]; listed as Peptide 2D): bind strongly and selectively to SSTR3; also recorded: slightly less selective |
| C[C@@H](O)[C@@H]1NC(=O)[C@H](CCCCN)NC(=O)[C@@H](N(C)C(=O)c2ccc3ccccc3c2)NC(=O)[C@H](Cc2ccc(Cl)cc2)NC(=O)[C@H](Cc2ccccc2)NC(=O)[C@H](N)CSSC[C@@H](C(=O)O)NC(=O)[C@H](Cc2ccccc2)NC1=O [Peptide No. 2E, (cyclo 3-14)H-D-Cys-Phe-4ClPhe-D-Agl(Me,2Np)-Lys-Thr-Phe-Cys-OH] |  | 180 |  |  | > 1000 | > 1000 | > 10000 | > 1000 | binding strength and selectivity for SSTR3, in words ([1]; listed as Peptide 2E): bind strongly and selectively to SSTR3; also recorded: slightly less selective |

From US6579967B1, “Receptor-selective somatostatin analogs” (The Salk Institute for Biological Studies, priority 1999, dated 2003)
